In article PMC8205030, “Methoxy and bromo scans on N-(5-methoxyphenyl) methoxybenzenesulphonamides reveal potent cytotoxic compounds, especially against the human breast adenocarcinoma MCF7 cell line” (Journal of Enzyme Inhibition and Medicinal Chemistry, 2021):

Tested on: p-62 in HT-29 cells
Assay: Western blot of autophagosome marker p-62, HT-29
Format: cell-based, human
Conditions: HT-29, 175 nM, 24 h
Description: MCF7, HeLa and HT-29 cells in an exponential growth phase at 2 × 10^4 cells/mL were seeded in Petri dishes (20 × 100 mm) (10 ml/dish). After 24 h incubation, cells were treated with compound 25 at 175 nM, and the levels of p-62 in treated and untreated cells were measured at 24 h post-treatment. The culture medium was removed, cells were washed with PBS and resuspended in 1 ml lysis buffer (50 mM Tris, 130 mM NaCl, 1 mM EDTA, 1% Triton X-100) containing protease inhibitors (Complete, Roche Applied Science, Indianapolis). Cells were harvested and incubated with lysis buffer for 30 min at 4 °C in constant agitation. Cell extracts were centrifuged at 12,000 rpm for 15 min at 4 °C and the supernatants were stored at −80 °C. Protein concentrations were determined using Bradford (BioRad, Hercules, CA) method taking BSA (Bovine Serum Albumin) as standard. Protein extracts were used for electrophoresis mixing with loading buffer (4% SDS, 0.05% bromophenol blue, 20% glycerine, 2% β-mercaptoethanol, and Tris 100 mM at pH 6.8). Proteins were then denatured at 95 °C for 7 min. Protein samples (50 μg/lane) were subjected to electrophoresis on 8% acrylamide gel and SDS-PAGE running buffer at constant voltage (140 V). Then, acrylamide gels were transferred to a PVDF membrane (Merck Millipore, Burlington, Massachusetts, USA) using a semi-dry transfer system for 30 min at constant voltage (15 V). […]

Structure (SMILES): COc1ccc(S(=O)(=O)N(CC#N)c2cc(OC)c(Br)cc2OC)cc1 [Compound 25, N-(4-bromo-2,5-dimethoxyphenyl)-N-(cyanomethyl)-4-methoxybenzenesulphonamide]
- p-62 levels: almost complete reduction in the expression of p-62
